Test results as given in PubChem BioAssay (NCI).
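48-hour exposure; five concentrations; linearly interpolated endpoints. GI50 is the concentration that inhibits growth by half. TGI is the concentration that stops growth completely.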

Columns and labels:
Assay in all cases: NCI-60 cell line screen, 48 h
OVCAR-8 ovarian = system: OVCAR-8 ovarian
SNB-19 CNS = system: SNB-19 CNS
HOP-62 NSCLC = system: HOP-62 NSCLC
HL-60(TB) leukemia = system: HL-60(TB) leukemia
MOLT-4 leukemia = system: MOLT-4 leukemia
SNB-75 CNS = system: SNB-75 CNS
HT29 colon = system: HT29 colon
HOP-92 NSCLC = system: HOP-92 NSCLC
EKVX NSCLC = system: EKVX NSCLC
NCI/ADR-RES ovarian = system: NCI/ADR-RES ovarian

| Compound | GI50 (OVCAR-8 ovarian) [µM] | TGI (OVCAR-8 ovarian) [µM] | GI50 (SNB-19 CNS) [µM] | TGI (SNB-19 CNS) [µM] | GI50 (HOP-62 NSCLC) [nM] | TGI (HOP-62 NSCLC) [µM] | GI50 (HL-60(TB) leukemia) [nM] | TGI (HL-60(TB) leukemia) [µM] | GI50 (MOLT-4 leukemia) [µM] | TGI (MOLT-4 leukemia) [µM] | GI50 (SNB-75 CNS) [nM] | TGI (SNB-75 CNS) [µM] | GI50 (HT29 colon) [nM] | TGI (HT29 colon) [µM] | GI50 (HOP-92 NSCLC) [nM] | TGI (HOP-92 NSCLC) [µM] | TGI (EKVX NSCLC) [µM] | GI50 (NCI/ADR-RES ovarian) [nM] | TGI (NCI/ADR-RES ovarian) [µM] | GI50 (EKVX NSCLC) [nM] |
| --- | --- | --- | --- | --- | --- | --- | --- | --- | --- | --- | --- | --- | --- | --- | --- | --- | --- | --- | --- | --- |
| Clc1cccc(Cn2cc(Cc3cn(Cc4cccc(Cl)c4)c4ccccc34)c3ccccc32)c1 | > 100 | > 100 | > 100 | > 100 | > 100000 | > 100 | > 100000 | > 100 | > 100 | > 100 | > 100000 | > 100 | > 100000 | > 100 | 22500 | > 100 | – | – | – | – |
| Cn1nc(-c2ccccc2)c(C(=O)/C=C/c2ccccc2)c(N2CCCCC2)c1=O | – | > 100 | – | > 100 | – | 42.8 | – | 12.3 | – | > 100 | – | – | – | 69 | – | 86.7 | > 100 | – | – | – |
| O=Cc1ncc(-c2ccc(C(F)(F)F)cc2)c(NC2CCCCCC2)n1 | > 10 | > 10 | > 10 | > 10 | > 10000 | > 10 | > 10000 | > 10 | > 10 | > 10 | > 10000 | > 10 | > 10000 | > 10 | > 10000 | > 10 | – | > 10000 | > 10 | – |
| CCCCCCCCC(=O)CCCCCCCCC(=O)O | – | 32.4 | – | > 100 | – | 66.6 | – | 16.2 | – | 40.2 | – | > 100 | – | 49.7 | – | 35.2 | 93.3 | – | – | – |
| CC12Oc3ccc4ccccc4c3C1c1c(ccc3ccccc13)O2 (centres undefined) | – | > 100 | – | > 100 | – | – | – | – | – | > 100 | – | > 100 | – | > 100 | – | > 100 | > 100 | – | – | – |
| CCOC(=O)CC(=O)N(c1ccc(OC)cc1)C(C(=O)OC)c1ccccc1 (centres undefined) | – | > 100 | – | > 100 | – | > 100 | – | – | – | – | – | > 100 | – | > 100 | – | – | > 100 | – | > 100 | – |
| COC(=O)C1C2CC3C(OC(=O)C31)C2I (centres undefined) | – | > 100 | – | > 100 | – | > 100 | – | > 100 | – | > 100 | – | > 100 | – | > 100 | – | > 100 | > 100 | – | – | – |
| CC(=O)c1cc2c3c(c1)c1cc4c(cc1c(=O)n3CC2)OCO4 | – | > 100 | – | > 100 | – | > 100 | – | > 100 | – | 9.92 | – | > 100 | – | > 100 | – | > 100 | > 100 | – | – | – |
| Nc1ccn(C2OC(CO[P+](=O)OC3C(CO[P+](=O)OC4C(CO[P+](=O)OC5C(CO[P+](=O)OC6C(CO[P+](=O)OC7C(CO[P+](=O)OC8C(CO[P+](=O)OC9C(CO[P+](=O)OC%10C(CO[P+](=O)OC%11C(CO)OC(n%12ccc(N)nc%12=O)C%11(F)F)OC(n%11ccc(N)nc%11=O)C%10(F)F)OC(n%10ccc(N)nc%10=O)C9(F)F)OC(n9ccc(N)nc9=O)C8(F)F)OC(n8ccc(N)nc8=O)C7(F)F)OC(n7ccc(N)nc7=O)C6(F)F)OC(n6ccc(N)nc6=O)C5(F)F)OC(n5ccc(N)nc5=O)C4(F)F)OC(n4ccc(N)nc4=O)C3(F)F)C(O)C2(F)F)c(=O)n1 (centres undefined) | – | – | – | > 100 | 17.5 | – | – | 0.18 | – | – | – | – | 1320 | > 100 | – | – | > 100 | – | > 100 | > 100000 |
| O=[n+]1cnn([O-])c2ccccc21 | – | > 100 | – | > 100 | – | 49.9 | – | – | – | > 100 | – | > 100 | – | 40.4 | – | – | 91.7 | – | > 100 | – |
| O=C(c1ccc(F)c(F)c1Nc1ccc(I)cc1F)N1CC(O)([C@H]2CCCCN2)C1 | 12 | 26.9 | 8.08 | 22.8 | 1970 | 17.3 | 173 | 5.71 | 8.46 | 23.3 | 5960 | 20.5 | 89.4 | 10.9 | 406 | 2.77 | – | 8740 | 23 | – |
| O=C1OCC2=C1C(c1ccccc1)c1cc3c(cc1N2CCO)CCC3 (centres undefined) | 0.144 | > 25 | 0.119 | > 12.9 | 131 | > 25 | 87.1 | 1.94 | 0.307 | > 25 | 78.6 | > 25 | 87.8 | – | – | – | > 25 | 52.1 | 0.139 | 1160 |
| CCc1ccc(/C(C#N)=C/C=C/c2ccccc2)cc1 | 5 | > 100 | 6.88 | > 100 | 2830 | > 100 | 2540 | > 62.9 | 6.87 | > 83.9 | – | – | 1380 | 9.41 | 2280 | 78.8 | – | 2210 | > 100 | – |
| CC1C(=O)CCC1C(Sc1ccccc1)(Sc1ccccc1)Sc1ccccc1 (centres undefined) | – | > 100 | – | > 100 | – | > 100 | – | 23.7 | – | 37.9 | – | 64.6 | – | > 100 | – | 81.8 | > 100 | – | – | – |
| CCCCN(CCCC)c1cc(C(=O)CCCCCN)c2ccccc2n1 | 2.03 | 4.61 | 1.65 | 3.12 | 1760 | 3.53 | – | – | 2.54 | 5.47 | 1710 | 3.21 | 2000 | 3.57 | 2510 | 6.32 | 23.1 | 1780 | 3.61 | 4990 |
| CCC[CH2][Sn]([CH2]CCC)([O]C(=O)c1cc(OC)c(OC)c(OC)c1)[O]C(=O)c1cc(OC)c(OC)c(OC)c1 | 1.5 | 3.37 | 0.464 | 1.54 | 2010 | 3.45 | – | – | 0.505 | 4.11 | 169 | 1.29 | 1690 | 3.33 | – | – | 4.69 | – | – | 1950 |
| Nc1ccccc1S(=O)c1ccccc1 (centres undefined) | – | > 100 | – | > 100 | – | > 100 | – | > 100 | – | > 100 | – | > 100 | – | > 1 | – | > 100 | > 100 | – | – | – |
| CCOC(=O)NC(=O)c1cn(CCCCCCCCCCC(=O)N2CCN(CCn3cc(C(=O)NC(=O)OCC)c(=O)[nH]c3=O)CC2)c(=O)[nH]c1=O | – | > 100 | – | > 100 | – | > 100 | – | > 100 | – | > 100 | – | > 100 | – | > 100 | – | > 100 | > 100 | – | – | – |
